Experimental data taken from patent publication US11207290B2, “Combinations of cannabinoids and N-acylethanolamines” (SciSparc Ltd., priority 2015, dated 2021).
Entries after “also recorded” stand apart in the source; their conditions may differ.

Legend:
Mice, strain ICR [1] = test: Open Field (OF) test; assay type: in vivo; conditions: 15 minute session; for Average animal velocity (uncontrolled movement): FIG. 2
Experimental: (§1) Animals—Mice, strain ICR, male, 8 weeks of age at study initiation. The average animal body weight at study initiation was in the range of 31.97±1.61 g. […] Animals were randomly allocated to individual cages on the day of reception. Animals were acclimated for seven to nine days.
(§2) Test item was administered […] at a dose volume of 10 ml/kg according to the doses in Table 1. Dosing was performed 15 minutes before each of the behavioral tests.
Open Field (OF) tests were performed as follows—Fifteen minutes after test item/vehicle administration, mice were placed at the center of an open field box (43×43×40 cm) between 9 AM and 5 PM. On each side of the open field box, two frames placed at 2 and 5 cm height with 16 photocell beams per side ensure movement detection. The computer defined grid lines that divided the open field into two compartments: margin and center. Several variables were recorded during a 15 minute session of spontaneous activity including: time spent moving, traveled distance, time spent and number of visits to the central compartment.
(§3) Statistical analysis—Numerical results were given as means±standard error of the mean. The results were subjected either to a T-test or to two-way ANOVA, followed by Bonferroni post-hoc contrast analysis between the groups where applicable. A probability of less than 5% (p<0.05) was regarded as significant.

adult TS patients [2] = conditions: single dose of 5, 7.5 or 10 mg THC compared with placebo, p=0.015; cited from earlier work
adult TS patients [3] = conditions: 2.5 mg THC per day titrated to 10 mg, vs placebo, visits 3 and 4, p<0.05; cited from earlier work
Mice, strain ICR [4] = test: Tail pinch test (modified Haffner's method); assay type: in vivo; conditions: for Latency to respond: vs control
Experimental: as §1, §2
Tail pinch tests were performed as follows, according to the modified Haffner's method (as depicted in Takagi et al., Jpn. J. Pharmacol., 1966, 16, Pages 287-294)—Mice were pretested by pinching their tail base with an artery clip (1.5 mm width, constant force), and only the mice that show a nociceptive response such as biting the clip or vocalizing within 2 sec were used for experiments. […] To prevent tissue damage, the pressure stimuli was not applied for more than 10 sec. After drug treatments, the nociceptive response in the tail-pinch test was measured at varying intervals.
as §3

[5] = widely considered; Buxbaum 1972; cited from earlier work
[6] = Body weight gain during the study; assay type: in vivo, mice; conditions: vs vehicle group 1M
Experimental: as §1, §2, §3

CCCCCc1cc(O)c2c(c1)OC(C)(C)[C@@H]1CCC(C)=C[C@@H]21 [THC, (−)-trans-Δ9-tetrahydrocannabinol]
Average animal velocity (uncontrolled movement) (Mice, strain ICR [1]; group 2M: THC 50 mg/kg, vs control 1M): significantly increased the velocity | Total time spent in the center of an arena (measure of anxiety) (Mice, strain ICR [1]; group 2M: THC 50 mg/kg, FIG. 3): decreased the time spent in the center | Average animal velocity (uncontrolled movement) (Mice, strain ICR [1]; group 3M: THC 12.5 mg/kg): had no effect | Tourette Syndrome Symptom List (TSSL) self-rating (adult TS patients [2]): significant global tic improvement | Global Clinical Impression Scale (GCIS) (adult TS patients [3]): significant difference | Analgesic effect at 15′ post administration (Mice, strain ICR [4]; group 2M: THC 50 mg/kg): only group 4M exhibited an analgesic effect | Latency to respond (Mice, strain ICR [4]; group 2M: high dose THC 50 mg/kg, FIG. 4A): higher compared to the control | Analgesic effect at 15′ post administration (Mice, strain ICR [4]; group 3M: THC 12.5 mg/kg): exhibited an analgesic effect | Latency to respond (Mice, strain ICR [4]; group 3M: low dose THC 12.5 mg/kg, FIG. 4B): higher compared to the control | Minimal effective dose of THC as an analgesic [5]: 20 mg/kg | Body weight (BW) gain ([6]; group 2M: THC 50 mg/kg, FIG. 1A): characteristic weight gain | Body weight (BW) gain ([6]; group 3M: THC 12.5 mg/kg, FIG. 1B): increased; also recorded: characteristic weight gain
